Test results published in patent publication US10517889B2, “Modulators of SMAD7 expression” (Ionis Pharmaceuticals, Inc., priority 2017, dated 2019).
Strand notation (5' to 3'): a small letter for the sugar, then the base; units joined by * are phosphorothioate-linked, units joined directly phosphodiester-linked; [ ] holds rarer units or linkages, { } end groups; capitals alone tell only the bases. k = constrained ethyl (cEt); [5mC] = 5-methylcytosine; d = 2'-deoxy (DNA)

Tested on: human SMAD7 mRNA
Test: Antisense inhibition of human SMAD7 mRNA expression in Hep3B cells by 3-10-3 cEt gapmers, 10,000 nM, electroporation (Example 2)
Type: cell-based
Conditions: approximately 24 hours
Method in brief: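 Hep3B cells (20,000/well) were electroporated with 10,000 nM 3-10-3 cEt gapmer (16-mer, phosphorothioate, 5-methylcytosines) and harvested after about 24 h. SMAD7 mRNA quantified by RT-qPCR with primer probe set RTS5062, normalized to total RNA by RiboGreen; percent inhibition relative to untreated cells.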

[1] = Hep3B cells, electroporation with 10,000 nM antisense oligonucleotide, primer probe set RTS5062, relative to untreated control cells
[2] = Hep3B cells, 10,000 nM antisense oligonucleotide, electroporation, RT-PCR primer probe set RTS5062, relative to untreated control cells
[3] = Hep3B cells, electroporation with 10,000 nM antisense oligonucleotide, SMAD7 mRNA by RT-PCR (RTS5062), relative to untreated control cells
[4] = Hep3B cells, electroporation, 10,000 nM antisense oligonucleotide, RTS5062, relative to untreated control cells
[5] = Hep3B cells, electroporation with 10,000 nM antisense oligonucleotide, RTS5062, percent inhibition of SMAD7 mRNA relative to untreated control cells
[6] = SMAD7 mRNA, Hep3B cells, 10,000 nM antisense oligonucleotide, electroporation, primer probe set RTS5062, relative to untreated control cells

Substance: 799166 (antisense kA*kA*k[5mC]*dA*dG*dT*dG*dT*d[5mC]*dG*dA*dA*dG*kT*kA*kT) [compound 799166]
- % inhibition of SMAD7 mRNA expression [1]: 21%

Substance: 799879 (kT*kG*kG*dA*dA*dA*dA*dG*d[5mC]*dT*d[5mC]*d[5mC]*dT*kT*k[5mC]*kT; antisense) [compound 799879]
- % Inhibition [2]: 3%

Substance: 799460 (antisense k[5mC]*kA*kA*d[5mC]*dA*dG*dA*dG*dT*d[5mC]*dT*dT*dT*kG*kA*kA) [compound 799460]
- % inhibition of SMAD7 mRNA expression [1]: 29%

Substance: 800076 (antisense k[5mC]*kG*k[5mC]*dT*dT*d[5mC]*d[5mC]*d[5mC]*dT*dA*d[5mC]*dA*d[5mC]*kA*kG*kT) [compound 800076]
- % Inhibition [2]: 25%

Substance: 799473 (antisense kT*kA*kT*d[5mC]*d[5mC]*d[5mC]*dA*dT*dG*dG*d[5mC]*dT*d[5mC]*kT*k[5mC]*kA) [compound 799473]
- % Inhibition [3]: 63%

Substance: 799391 (antisense k[5mC]*kG*k[5mC]*d[5mC]*d[5mC]*d[5mC]*dA*dG*d[5mC]*dA*dA*dA*dA*k[5mC]*kT*kT) [compound 799391]
- % Inhibition [3]: 0%

Substance: 830083 (kA*kT*kG*dG*dT*dG*dT*dA*dT*dA*d[5mC]*d[5mC]*d[5mC]*kT*kG*k[5mC]; antisense) [compound 830083]
- % Inhibition [3]: 54%

Substance: 798963 (antisense kT*kT*k[5mC]*dT*dT*d[5mC]*d[5mC]*dA*dA*dA*dA*dA*dA*kA*k[5mC]*k[5mC]) [compound 798963]
- % inhibition of SMAD7 mRNA expression [1]: 13%

Substance: 772628 (kG*k[5mC]*k[5mC]*dT*dT*dG*dA*dT*dG*dG*dA*dG*dA*kA*kA*k[5mC]; antisense) [compound 772628]
- % Inhibition [2]: 33%

Substance: 799232 (kT*k[5mC]*kA*dG*d[5mC]*dT*dA*dG*dG*dT*dG*dA*dT*kA*kA*k[5mC]; antisense) [compound 799232]
- % inhibition of SMAD7 mRNA expression [1]: 13%

Substance: 799324 (antisense kT*k[5mC]*k[5mC]*d[5mC]*dA*dG*dG*dA*dG*dG*dG*dT*dA*kT*kG*k[5mC]) [compound 799324]
- % inhibition of SMAD7 mRNA expression [1]: 6%

Substance: 830114 (kG*kA*kG*d[5mC]*d[5mC]*d[5mC]*d[5mC]*dA*dT*dT*d[5mC]*dA*dT*kT*kA*kA; antisense) [compound 830114]
- % Inhibition [3]: 22%

Substance: 799516 (antisense k[5mC]*kA*k[5mC]*d[5mC]*dA*dG*dA*dT*d[5mC]*dA*dA*dG*dA*k[5mC]*kA*kG) [compound 799516]
- % inhibition of SMAD7 mRNA expression [4]: 0%

Substance: 799326 (kA*k[5mC]*kA*d[5mC]*dT*d[5mC]*dT*d[5mC]*d[5mC]*d[5mC]*dA*dG*dG*kA*kG*kG; antisense) [compound 799326]
- % inhibition of SMAD7 mRNA expression [1]: 31%

Substance: 798808 (kG*kG*kA*dA*dT*d[5mC]*dT*dG*dA*dA*dA*dG*d[5mC]*k[5mC]*k[5mC]*k[5mC]; antisense) [compound 798808]
- % inhibition of SMAD7 mRNA expression [1]: 44%

Substance: 798857 (kT*kG*k[5mC]*dT*dG*d[5mC]*dG*dG*dT*dT*dG*dT*dA*k[5mC]*kA*k[5mC]; antisense) [compound 798857]
- % Inhibition [2]: 11%

Substance: 799487 (antisense kA*kA*kA*d[5mC]*dA*dT*dA*dA*dT*dG*dA*d[5mC]*dT*kT*kA*kT) [compound 799487]
- % Inhibition [3]: 0%

Substance: 830120 (kG*k[5mC]*k[5mC]*dG*dA*d[5mC]*d[5mC]*dT*dT*d[5mC]*d[5mC]*dT*d[5mC]*k[5mC]*k[5mC]*kA; antisense) [compound 830120]
- % Inhibition [3]: 27%

Substance: 798730 (antisense kG*kG*kT*dG*dA*d[5mC]*d[5mC]*dT*dT*dT*dG*dG*d[5mC]*kA*k[5mC]*k[5mC]) [compound 798730]
- % inhibition of SMAD7 mRNA expression [1]: 0%

Substance: 799069 (antisense kA*kT*kA*dA*dG*dA*d[5mC]*dA*dA*dG*dG*dA*dT*kG*kA*kA) [compound 799069]
- % inhibition of SMAD7 mRNA expression [1]: 18%

Substance: 799804 (kA*k[5mC]*kA*dG*dA*d[5mC]*dA*dG*dA*dG*dA*dA*dG*kG*kA*kT; antisense) [compound 799804]
- % Inhibition [5]: 38%

Substance: 830139 (antisense kT*kG*kG*dA*dG*dT*dT*dG*d[5mC]*dA*dT*dG*d[5mC]*k[5mC]*kT*kT) [compound 830139]
- % Inhibition [3]: 45%

Substance: 799505 (antisense k[5mC]*k[5mC]*k[5mC]*dG*dG*d[5mC]*dT*dA*dA*dG*dG*dA*dA*kA*kG*kG) [compound 799505]
- % Inhibition [3]: 31%

Substance: 799111 (antisense kA*kG*k[5mC]*dA*dG*dG*d[5mC]*dA*dG*dT*dG*d[5mC]*dT*kG*kA*kG) [compound 799111]
- % inhibition of SMAD7 mRNA expression [1]: 50%

Substance: 830145 (antisense kT*kG*kG*dG*dT*dG*dT*dG*d[5mC]*dA*d[5mC]*d[5mC]*dA*kG*kG*kT) [compound 830145]
- % Inhibition [3]: 47%

Substance: 798956 (antisense k[5mC]*kT*kT*dT*dT*d[5mC]*dA*dT*dA*dA*dG*d[5mC]*dT*kA*kT*kT) [compound 798956]
- % Inhibition [1]: 22%

Substance: 799784 (k[5mC]*kA*kG*dG*dA*dA*d[5mC]*dT*dG*dG*dT*d[5mC]*d[5mC]*kT*k[5mC]*kT; antisense) [compound 799784]
- % Inhibition [5]: 19%

Substance: 799767 (kT*k[5mC]*kT*dG*dT*dT*dT*dG*dG*dA*d[5mC]*dA*dA*kG*kT*kT; antisense) [compound 799767]
- % Inhibition [5]: 47%

Substance: 799183 (antisense k[5mC]*kT*kT*dT*dG*dT*dA*dG*dT*dT*dA*dG*dA*kA*kA*kA) [compound 799183]
- % inhibition of SMAD7 mRNA expression [1]: 0%

Substance: 799430 (antisense kA*kG*k[5mC]*d[5mC]*dA*d[5mC]*dA*dA*dG*dT*d[5mC]*dA*d[5mC]*kA*kA*k[5mC]) [compound 799430]
- % Inhibition [3]: 29%

Substance: 799422 (antisense kG*kA*kT*dT*dT*dT*dA*dA*d[5mC]*dA*dG*dT*dT*kG*kT*k[5mC]) [compound 799422]
- % inhibition of SMAD7 mRNA expression [1]: 33%

Substance: 799028 (kA*kG*kA*d[5mC]*dA*d[5mC]*d[5mC]*dG*d[5mC]*dT*dT*dG*dG*kG*kA*k[5mC]; antisense) [compound 799028]
- % inhibition of SMAD7 mRNA expression [1]: 37%

Substance: 799411 (antisense kT*kG*kG*dA*dG*dA*dA*d[5mC]*dT*dT*dT*dT*d[5mC]*kT*k[5mC]*k[5mC]) [compound 799411]
- % Inhibition [3]: 0%

Substance: 798654 (k[5mC]*k[5mC]*k[5mC]*dT*dG*d[5mC]*dG*d[5mC]*dG*dG*d[5mC]*dT*d[5mC]*kT*k[5mC]*k[5mC]; antisense) [compound 798654]
- % inhibition of SMAD7 mRNA expression [1]: 23%

Substance: 799205 (antisense kT*kA*kA*dA*dT*d[5mC]*dT*d[5mC]*dA*dG*dG*dT*dT*kT*kT*kT) [compound 799205]
- % inhibition of SMAD7 mRNA expression [1]: 54%

Substance: 799024 (k[5mC]*kT*kT*dG*dG*dG*dA*d[5mC]*dT*dG*d[5mC]*dA*dA*kA*k[5mC]*k[5mC]; antisense) [compound 799024]
- % inhibition of SMAD7 mRNA expression [1]: 0%

Substance: 830177 (antisense k[5mC]*kA*kG*d[5mC]*d[5mC]*d[5mC]*dT*dT*dT*d[5mC]*dA*d[5mC]*d[5mC]*k[5mC]*k[5mC]*kT) [compound 830177]
- % Inhibition [3]: 40%

Substance: 790741 (kA*kT*kT*dA*dA*dG*d[5mC]*d[5mC]*d[5mC]*dG*d[5mC]*dT*d[5mC]*kT*k[5mC]*kA; antisense) [compound 790741]
- % Inhibition [6]: 30%

Substance: 799769 (k[5mC]*k[5mC]*kA*d[5mC]*d[5mC]*dA*dA*d[5mC]*d[5mC]*dT*d[5mC]*dT*dG*kT*kG*kG; antisense) [compound 799769]
- % Inhibition [5]: 0%

Substance: 799300 (antisense k[5mC]*kA*k[5mC]*dA*dT*dT*d[5mC]*d[5mC]*dA*dA*dA*dA*dG*kG*k[5mC]*kT) [compound 799300]
- % inhibition of SMAD7 mRNA expression [4]: 28%

Substance: 799504 (antisense kA*kG*kG*dA*dA*dA*dG*dG*dT*dG*d[5mC]*dT*dG*k[5mC]*k[5mC]*k[5mC]) [compound 799504]
- % inhibition of SMAD7 mRNA expression [4]: 15%

Substance: 772687 (kA*k[5mC]*k[5mC]*dT*dT*dT*dG*dT*dA*dG*dT*dT*dA*kG*kA*kA; antisense) [compound 772687]
- % Inhibition [6]: 46%

Substance: 799309 (antisense kG*k[5mC]*kA*d[5mC]*dG*d[5mC]*dT*d[5mC]*dT*dA*dA*dA*d[5mC]*kA*kG*k[5mC]) [compound 799309]
- % Inhibition [5]: 42%

Substance: 799736 (antisense kT*kT*k[5mC]*dT*dA*d[5mC]*dA*d[5mC]*d[5mC]*dT*dT*dT*dT*kA*kA*kG) [compound 799736]
- % inhibition of SMAD7 mRNA expression [4]: 56%

Substance: 798760 (kG*kA*kG*dG*dG*d[5mC]*dG*dG*d[5mC]*dT*dG*d[5mC]*dG*k[5mC]*kA*kG; antisense) [compound 798760]
- % inhibition of SMAD7 mRNA expression [1]: 47%

Substance: 799334 (k[5mC]*k[5mC]*kG*dT*dA*dG*dA*d[5mC]*d[5mC]*d[5mC]*d[5mC]*dT*dT*k[5mC]*kG*kG; antisense) [compound 799334]
- % Inhibition [3]: 21%
